Ends that are not written are not given here.
Legend:
[1] = system: Ras-related protein Rab-7L1; Rab29; experiment: Targeted proteomics in melanoma cells: Rab29; assay type: cell-based, Mus musculus; details: melanoma cells treated with octapeptide 50 μg/mL, 48 h, vs control; LC-MS/MS proteomics
Method: (§1) Although using the tyrosinase enzyme extracted from a mushroom for an in vitro tyrosinase inhibitory assay has been widely studied as a routine screening for tyrosinase inhibition, tyrosinase from the mushroom is located in the cytoplasm and is different from the mammalian tyrosinase that is found on the membrane of melanocytes. Therefore, cell-based assays are also usually utilized to identify the potential tyrosinase inhibitor. In our study, the effects of the octapeptide at 50 μg/mL in melanoma cells was investigated by a proteomics approach. […]
(§2) The Mus musculus skin melanoma cell line (B16-F10 ATCC, CRL-6475) and Cercopithecus aethiops kidney normal cell line (Vero ATCC, CCL-81) were used to explore the cell cytotoxicity. The effect of the octapeptide on the skin was evaluated in skin carcinoma cells. […] The cell viability was analyzed using the MTT (3-(4,5-dimethylthiazol-2-yl)-2,5-diphenyltetrazolium bromide) assay. […] After incubation for 24 h, the cell viability was measured by the optical absorbance at 630 and 570 nm using a microplate reader and transformed into the percentage of cell survival. […]
(§3) The mzXML data were evaluated by the relative comparison of the peak intensities of each peptide ion in all datasets by DeCyder MS Differential Analysis software version 2.0 (GE Healthcare Co., Boston, MA, USA). […]

[2] = system: mushroom tyrosinase; experiment: In vitro tyrosinase inhibition assay (dopachrome, absorbance at 475 nm); assay type: biochemical; details: octapeptide 0.05 mg/mL
Method: To understand how the octapeptide modulates melanogenic enzymes, the activity of tyrosinase in the presence of the peptide was measured by the colorimetric assay. We used the time-dependent assay to confirm that the inhibition reaction occurred with dopachrome accumulation (absorbance at 475 nm). The time-dependent tyrosinase inhibition and the inhibition percentage of the octapeptide at a 50 ug/mL concentration are shown in Figure 2. The inhibitory effect of the octapeptide was determined against mushroom tyrosinase. The mixture of 10 µL of tyrosinase (20 enzyme unit/mL) in 50 mM phosphate buffer, pH 6.8, was added to 96-well plates containing 10 µL of the octapeptide (final concentration = 0.05 mg/mL), then 180 µL of 1 mM L-DOPA was added to start the reaction. […] Monitoring the inhibitory activity by measuring the absorbance at 475 nm for 60 min in a kinetic manner (reading every 1 min) using a microplate reader (Synergy H1, Biotek Inc., Winooski, VT, USA). The tyrosinase inhibitory activity was expressed as a percentage of inhibition at the end-point reaction (t = 60 min) by the equation. […] where Abssample is the absorbance of the reaction with the octapeptide and Absblank denotes the absorbance of the reaction without the testing sample (a buffer in each assay was added instead of the testing sample).

[3] = system: L-dopachrome tautomerase; Dct; experiment: Targeted proteomics in melanoma cells: Dct; assay type: cell-based, Mus musculus; details: melanoma cells treated with octapeptide 50 μg/mL, 48 h, vs control; LC-MS/MS proteomics
Method: as §1, §2, §3

[4] = system: 5,6-dihydroxyindole-2-carboxylic acid oxidase; Tyrp1; experiment: Targeted proteomics in melanoma cells: Tyrp1; assay type: cell-based, Mus musculus; details: melanoma cells treated with octapeptide 50 μg/mL, 48 h, vs control; LC-MS/MS proteomics
Method: as §1, §2, §3

[5] = Ferric reducing antioxidant power (FRAP) assay; details: octapeptide 1 mg/mL, 10 µL; 30 min room temperature in the dark, absorbance 593 nm; mean ± SD, n = 3
Method: Since the antioxidant activity of a substance should be determined by different assays to study the radical scavenging mechanisms, the in vitro radical scavenging potential of the synthesized octapeptide was determined by three different common methods: 2,2-diphenyl-1-picrylhydrazyl (DPPH), 2,2′-azino-bis(3-ethylbenzothiazoline-6-sulfonate) (ABTS), and ferric reducing antioxidant power (FRAP) assays. […] The scavenging activities were calculated to be 0.121 ± 0.01 AsEAC and 0.173 ± 0.03 GaEAC for the DPPH and the ABTS assay, respectively.
For the DPPH scavenging activity, 10 µL of the octapeptide (1 mg/mL) was mixed with 200 µL DPPH solution (0.2 mM in methanol). […] The DPPH scavenging activity of the samples was expressed as the ascorbic acid equivalent antioxidant capacity (AsEAC). For the ABTS scavenging activity, ABTS radical solution (7 mM ABTS stock solution with 2.45 mM potassium persulfate) was diluted in 5 mM phosphate buffer saline (Gibco, Waltham, MA, USA), pH 7.4, to acquire an absorbance of 0.50 at 734 nm before performing the assay. […] The absorbance of the mixture was evaluated at 734 nm. The ABTS scavenging activity of the samples was expressed as the gallic equivalent antioxidant capacity (GaEAC). […] The absorbance was measured at 593 nm. The FRAP scavenging activity of the samples was expressed as FeSO4 molar equivalents.

tyrosinase inhibitory effect at end point (60 min) ([2]; 1 mM L-DOPA, 50 mM phosphate buffer pH 6.8, 37 °C, t = 60 min, mean ± SD, n = 3): 13.48 ± 2.12% | tyrosinase inhibitory effect during the first 30 min of the reaction ([2]; time-dependent assay, rate similar to control): not observed
Sequence: PVRSSNCA [octapeptide, Proline-Valine-Arginine-Serine-Serine-Asparaine-Cysteine-Alanine]
Relative Expression (Fold) of Rab29 [1]: 2.0646 Fold | Relative Expression (Fold) of Dct [3]: 2.0460 Fold | Relative Expression (Fold) of Tyrp1 [4]: 0.5034 Fold | FRAP reductant ability, FeSO4 molar equivalents [5]: 2.21 ± 0.23 mM equivalent to FeSO4

Reference: article PMC9230030, “Discovery of a Multifunctional Octapeptide from Lingzhi with Antioxidant and Tyrosinase Inhibitory Activity” (Pharmaceuticals, 2022)
